The source made the active and inactive calls. No cut-off for these calls is given here.

Tested on in the first data set: not listed separately
The data set can be described thus: Volume of distribution in rat at 1 mg/kg, iv. As to conditions: in vivo. It is filed as ADME, organism-based.
Regarding `Cc1cc(C(=O)O)nn1Cc1cc(Cl)cc2sc(N3CC=CCC3)nc12`, the Vd (as a rule, a proportionality between amount in the body and measured concentration, not a real space) turned out to be 0.184 L/kg.

In the next data set the test system is Rattus norvegicus. The data set can be described thus: Inhibition of 17-PTP-induced increase in intravesical pressure in intraduodenally dosed rat overactive bladder model pretreated for 5 mins followed by 17-PTP treatment with 30 mins time interval for 245 mins. It is filed as functional, organism-based.
Conditions: not given
Consider `Cc1cc(C(=O)O)nn1Cc1cc(Cl)cc2sc(-c3ccccc3)nc12`, for which the inhibition entry is “inactive”.

Turning to `Cc1cc(C(=O)O)nn1Cc1cc(Cl)cc2sc(N3CC=CCC3)nc12`, the inhibition entry was “Dose-dependent effect”.

Tested on in the next data set: not listed separately
The data set can be described thus: Half life in rat at 1 mg/kg, iv. In kind it is ADME, organism-based. As to conditions: in vivo.
Consider `Cc1cc(C(=O)O)nn1Cc1cc(Cl)cc2sc(N3CC=CCC3)nc12`, for which the half-life (in general, the time in which the quantity being followed falls by half) was 40.7 min.

Tested on in a further data set: not listed separately
The data set can be described thus: Chemical stability of the compound in pH 1 acidic aqueous medium. As to conditions: buffer. It is filed as physicochemical.
For the compound `Cc1cc(C(=O)O)nn1Cc1cc(Cl)cc2sc(N3CC=CCC3)nc12`, the Stability result was “Stable”.

Tested on in a further data set: not listed separately
The data set can be described thus: Initial concentration in rat at 1 mg/kg, iv. As to conditions: in vivo. It is filed as ADME, organism-based.
Turning to `Cc1cc(C(=O)O)nn1Cc1cc(Cl)cc2sc(N3CC=CCC3)nc12`, the C0 was found to be 6000 ng/mL.

Tested on in the next data set: not listed separately
The data set can be described thus: AUC (0 to infinity) in rat at 1 mg/kg, iv. As to conditions: in vivo. It is filed as ADME, organism-based. Also on record: dose 1 mg/kg, time infinity, route intravenous.
Consider `Cc1cc(C(=O)O)nn1Cc1cc(Cl)cc2sc(N3CC=CCC3)nc12`, for which the AUC(0-inf) – broadly, total exposure, with the tail of the curve extrapolated – came out at 4480 ng·h/mL.

For another data set, the target named is T1, Prostaglandin E2 receptor EP1 subtype (Rattus norvegicus, UniProt P70597).
T1 sequence (P70597 whole entry): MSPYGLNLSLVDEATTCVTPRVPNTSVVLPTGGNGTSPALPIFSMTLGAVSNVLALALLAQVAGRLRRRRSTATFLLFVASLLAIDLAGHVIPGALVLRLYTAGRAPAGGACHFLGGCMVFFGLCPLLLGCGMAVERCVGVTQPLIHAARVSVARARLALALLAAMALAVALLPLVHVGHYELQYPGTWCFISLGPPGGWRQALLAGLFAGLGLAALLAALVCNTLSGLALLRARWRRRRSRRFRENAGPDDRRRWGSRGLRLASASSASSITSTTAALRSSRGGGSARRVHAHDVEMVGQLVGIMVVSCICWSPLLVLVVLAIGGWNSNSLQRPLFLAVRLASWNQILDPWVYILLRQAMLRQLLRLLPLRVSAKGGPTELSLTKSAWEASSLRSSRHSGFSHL
Nature of the data set: Antagonist activity at rat EP1 receptor expressed in African green monkey COS1 cells assessed as inhibition of prostaglandin-E2-induced increase in intracellular calcium level preincubated for 60 secs followed by prostaglandin-E2 addition measured for 60 secs by Fluo 4-AM dye based fluorescence assay.
Conditions: not given
In kind it is functional, cell-based. In general terms: Calcium flux is commonly read through the fluorescence of an indicator in the cells.
`Cc1cc(C(=O)O)nn1Cc1cc(Cl)cc2nc(-c3ccccc3)oc12`: the IC50 (in general, the concentration that inhibits the measured activity by half) was 750 nM. For the compound `Cc1cc(Cn2nc(C(=O)O)cc2C)c2nc(N3CC=CCC3)sc2c1`, the IC50 stood at 2500 nM. Same read-out and setting: then `Cc1cc(C(=O)O)nn1Cc1cc(Cl)cc2sc(N3CCOCC3)nc12`, with 63 nM; and `O=C(O)c1ccc(Oc2cc(Cl)cc3sc(N4CC=CCC4)nc23)o1`, with 150 nM. Still for that read-out and setting: then `Cc1cc(C(=O)O)nn1Cc1cc(Cl)cc2sc(N3CCS(=O)(=O)CC3)nc12`, with 4200 nM. Take `CCN(CC)c1nc2c(Cn3nc(C(=O)O)cc3C)cc(Cl)cc2s1`: the IC50 came out at 6.2 nM.

`Cc1cc(C(=O)O)nn1Cc1cc(Cl)cc2sc(-c3ccccc3)nc12`: the IC50 was 31 nM. On the same count and under the same terms, then `C=Cc1cc(Cn2nc(C(=O)O)cc2C)c2nc(N3CC=CCC3)sc2c1`, with 9.9 nM; and `CC(=O)c1cc(Cn2nc(C(=O)O)cc2C)c2nc(N3CC=CCC3)sc2c1`, with 200 nM; and `Cc1cc(C(=O)O)nn1Cc1cc(Br)cc2sc(N3CC=CCC3)nc12`, with 22 nM. Same read-out and setting: under `CC1=C(C)CN(c2nc3c(Cn4nc(C(=O)O)cc4C)cc(Cl)cc3s2)CC1` stands 5200 nM. Same read-out and setting: under `Cc1cc(C(=O)O)nn1Cc1cc(C(=O)O)cc2sc(N3CC=CCC3)nc12` stands 7900 nM; under `O=C(O)c1ccc(Sc2cc(Cl)cc3sc(N4CC=CCC4)nc23)o1`, 6.4 nM. For the compound `C=C(C)c1cc(Cn2nc(C(=O)O)cc2C)c2nc(N3CC=CCC3)sc2c1`, the IC50 was 160 nM. Same read-out and setting: then `Cc1cc(C(=O)O)nn1Cc1cc(Cl)cc2sc(C3=CCCCC3)nc12`, with 110 nM; and `C=C(C)c1nc2c(Cn3nc(C(=O)O)cc3C)cc(Cl)cc2s1`, with 33 nM; and `COc1cc(Cn2nc(C(=O)O)cc2C)c2nc(N3CC=CCC3)sc2c1`, with 37 nM.

Take `CCCN(CC)c1nc2c(Cn3nc(C(=O)O)cc3C)cc(Cl)cc2s1`: the IC50 is 270 nM. Still for that read-out and setting: then `Cc1cc(C(=O)O)nn1Cc1cc(OC(F)(F)F)cc2sc(N3CC=CCC3)nc12`, with 97 nM.

For `Cc1cc(C(=O)O)nn1Cc1cc(Cl)cc2sc(N(C)C)nc12`, the IC50 was determined as 100 nM. The same measure, in the same setting: under `Cc1cc(C(=O)O)nn1Cc1cc(Cl)cc2sc(N3CC=CC3)nc12` stands 110 nM; under `CCN(C)c1nc2c(Cn3nc(C(=O)O)cc3C)cc(Cl)cc2s1`, 13 nM. Same read-out and setting: under `O=C(O)c1ccc(Cc2cc(Cl)cc3sc(N4CC=CCC4)nc23)o1` stands 60 nM; under `Cc1cc(C(=O)O)nn1Cc1cc(Cl)cc2nc(-c3ccccc3)sc12`, 7950 nM; under `O=C(O)c1ccn(Cc2cc(Cl)cc3sc(N4CC=CCC4)nc23)c1`, 240 nM. The same measure, in the same setting: then `Cc1cc(C(=O)O)nn1Cc1cc(Cl)cc2sc(N3CCCCC3)nc12`, with 43 nM; and `Cc1cc(C(=O)O)nn1Cc1cc(Cl)cc2sc(N3CCCCCC3)nc12`, with 270 nM.

`Cc1cc(C(=O)O)nn1Cc1cc(Cl)cc2sc(N3CCN(C)CC3)nc12`: the IC50 came out at 4900 nM. Still for that read-out and setting: under `Cc1cc(C(=O)O)nn1Cc1cc(C#N)cc2sc(N3CC=CCC3)nc12` stands 230 nM; under `CNc1cc(Cn2nc(C(=O)O)cc2C)c2nc(N3CC=CCC3)sc2c1`, 8800 nM. On the same count and under the same terms, under `Cc1cc(C(=O)O)nn1Cc1cc(Cl)cc2sc(N3CCC3)nc12` stands 320 nM; under `Cc1cc(C(=O)O)nn1Cc1cc(N)cc2sc(N3CC=CCC3)nc12`, 7800 nM. On the same count and under the same terms, under `Cc1cc(C(=O)O)nn1Cc1cc(N(C)C)cc2sc(N3CC=CCC3)nc12` stands 210 nM. As to `Cc1cc(C(=O)O)nn1Cc1cc(Cl)cc2oc(-c3ccccc3)nc12`, the IC50 turned out to be 8700 nM. The same measure, in the same setting: under `Cc1cc(C(=O)O)nn1Cc1cc(Cl)cc2sc(N3CC=CCC3)nc12` stands 1.1 nM.

For `CC1=CCN(c2nc3c(Cn4nc(C(=O)O)cc4C)cc(Cl)cc3s2)CC1`, the IC50 stood at 64 nM. The same measure, in the same setting: under `Cc1cc(C(=O)O)nn1Cc1cc(Cl)cc2sc(N3CCSCC3)nc12` stands 66 nM; under `Cc1cc(C(=O)O)nn1Cc1cc(Cl)cc2sc(N3CCCC3)nc12`, 30 nM. Same read-out and setting: under `Cc1cc(C(=O)O)nn1Cc1cccc2sc(N3CC=CCC3)nc12` stands 32 nM; under `CNc1nc2c(Cn3nc(C(=O)O)cc3C)cc(Cl)cc2s1`, 470 nM. Same read-out and setting: under `CC1=CCCN(c2nc3c(Cn4nc(C(=O)O)cc4C)cc(Cl)cc3s2)C1` stands 30 nM. With `Cc1cc(C(=O)O)nn1Cc1cc(F)cc2sc(N3CC=CCC3)nc12`, the IC50 came out at 17 nM. Same read-out and setting: then `Cc1cc(C(=O)O)nn1Cc1cc(Cl)cc2sc(C3CCCCC3)nc12`, with 430 nM; and `O=C(O)c1ccn(Cc2cc(Cl)cc3sc(N4CC=CCC4)nc23)n1`, with 51 nM.

Tested on in a further data set: not listed separately
The data set can be described thus: Total clearance in rat at 1 mg/kg, iv. It is filed as ADME, organism-based. As to conditions: in vivo.
In the case of `Cc1cc(C(=O)O)nn1Cc1cc(Cl)cc2sc(N3CC=CCC3)nc12`, the clearance (in general, the volume of plasma or blood freed of the substance per unit of time) worked out at 3.79 mL/min/kg.
